{
  "source": "patent EP0201732A2",
  "about": "“Beta-2-mimetics of the 4-aminophenylethanolamine type for the prevention of peptic ulcers” (BOEHRINGER INGELHEIM VETMEDICA GMBH, priority 1985, dated 1986)",
  "key": {"[1]": {"experiment": "Feed consumption and final weight of the treated calves against the control group", "assay_type": "in vivo, Kälber", "description": "(§1) Beispielsweise wurde die Verbindung 1-(4-Amino-3,5,-dichforphenyl)-2-tertbutyfamina-äthanol- hydrochlorid in einer Tagesdosis von 2 mcg/kg Körpergewicht, verteilt auf 2 Dosen, welche dem Futter beigemischt war, 32 bei Beginn der Behandlung ca. 70 Tage alten und ca. 100 kg schweren Kälbern im Vergleich zu einer gleichgroßen Kontrollgruppe fortgesetzt verabreicht.\n(§2) 14 Tage vor dem Schlachttermin wurde die Behandlung beendet.\nAußerdem wies bei einem Futterverbrauch der Versuchsgruppe von 344,3 kg pro Tier bzw. von 343,7 kg pro Tier der Kontrollgruppe die erstere eine um ca. 10 kg höhere Endgewicht pro Tier auf. Bei einem annähernd gleichen Futterverbrauch pro Tier bedeutet dies eine Steigerung der Fleischproduktion von ca. 320 kg in der Versuchsgruppe."}, "[2]": {"experiment": "Tolerability in the treated calves: side effects, haematology and serum enzymes (random samples)", "assay_type": "in vivo, Kälber", "description": "as §1\n(§3) Die verabreichte Substanz ist gut verträglich."}, "[3]": {"experiment": "Acute oral toxicity (LD50)", "details": "mouse, in vivo, Maus, p.o.", "description": "as §3"}, "[4]": {"test_system": "peptische Labmagenulcera", "experiment": "Prevention of peptic abomasal ulcers in fattening calves, compound given as feed additive; abomasa dissected after slaughter", "assay_type": "in vivo, Kälber", "details": "2 mcg/kg body weight per day in 2 doses mixed into feed; 32 calves, ca. 70 days old and ca. 100 kg at start; treatment ended 14 days before slaughter; control group showed ulcers and haemorrhagic erosions", "description": "as §1, §2\nNach der Schlachtung zeigten sich bei der Sektion der Labmägen der Kontrollgruppe Läsionen der Labmagenschleimhaut in folgenden verschiedenen Stadien: • 3 Tiere hatten je ein Ulcus bis zu einem Durchmesser von 20 mm • 4 Tiere hatten mehrere Ulcera mit einem Durchmesser von 2 bis 15 mm\nWeitere Tiere wiesen hämorrhagische Erosionen auf den Magenschleimhautfalten auf."}, "[5]": {"test_system": "Magensäuresekretion", "details": "rat; doses higher by a factor of 100 than needed for the broncholytic effect; Arzneimittelforschung 26, 1404-1420 (1976); cited from earlier work"}, "[6]": {"test_system": "peptische Labmagenulcera", "details": "dose not given"}},
  "note": "Where a name gives a salt, the structure may show the parent alone.",
  "data": [
    {"smiles": "CC(C)(C)NCC(O)c1cc(Cl)c(N)c(Cl)c1", "note": "(centres unmarked) [1-(4-Amino-3,5-dichlor-phenyl)-2-tert.butylamino-äthanol-hydrochlorid]", "values": [
      {"measurement": "höhere Endgewicht pro Tier", "setting": "[1]; test group versus control group, 2 mcg/kg per day in feed", "value": "ca. 10 kg"},
      {"measurement": "Steigerung der Fleischproduktion", "setting": "[1]; whole test group (32 calves) at nearly equal feed consumption per animal", "value": "ca. 320 kg"},
      {"measurement": "Nebenwirkungen", "setting": "[2]; calves, 2 mcg/kg per day in feed", "value": "keinerlei Nebenwrikungen"},
      {"measurement": "hämatologische Untersuchung und Enzyme SGOT, CPK, LDH und GLDH", "setting": "[2]; random samples, test group versus control group", "value": "keine signifikanten Unterschiede"},
      {"measurement": "LD50", "setting": "[3]", "value": 176, "unit": "mg/kg"},
      {"measurement": "Läsionen der Labmagenschleimhaut", "setting": "[4]", "value": "bei keinem Tier der Versuchsgruppe irgendwelche Läsionen der Labmagenschleimhaut feststellbar"}
    ]},
    {"smiles": "CC(C)(C)NCC(O)c1cc(Cl)c(N)c(Cl)c1", "note": "(centres unmarked) [1-(4-Amino-3,5-dichlor-phenyl)-2-tert.butylamino-äthanol]", "values": [
      {"measurement": "Hemmwirkung auf die Magensäuresekretion", "setting": "[5]", "value": "eine Hemmwirkung auf die Magensäuresekretion"}
    ]},
    {"smiles": "CN/C(=N/CCSCc1nc[nH]c1C)NC#N", "note": "[Cimetidine]", "values": [
      {"measurement": "Behandlungsversuch", "setting": "[6]", "value": "erfolglos"}
    ]}
  ]
}
